# Measurements taken from patent publication US9695209B2, “Synthesis of amphiphilic calixarene glycoside detergents and use of same for extracting and stabilizing native functional membrane proteins” (CALIXAR, priority 2014, dated 2017).
# Read-outs that look alike come from different tables or passages of the source.
# Key:
# [1] = molecular target: T1, Bacteriorhodopsin protein (bR) (Halobacterium salinarum, UniProt P02945); assay: Stability test of bacteriorhodopsin protein over time (absorbance at 550 nm); conditions: after 1 month and a half exposure at 37° C. in the dark
# T1 sequence (P02945 14-262): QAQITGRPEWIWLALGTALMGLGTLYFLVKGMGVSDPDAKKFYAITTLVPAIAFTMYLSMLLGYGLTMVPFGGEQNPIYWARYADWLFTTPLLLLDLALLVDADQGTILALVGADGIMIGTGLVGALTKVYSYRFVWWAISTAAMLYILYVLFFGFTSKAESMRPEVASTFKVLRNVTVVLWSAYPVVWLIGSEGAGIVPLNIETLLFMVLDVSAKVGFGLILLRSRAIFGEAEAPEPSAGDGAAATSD
# [2] = Average particle size of aggregates by DLS (Dynamic Light Scattering); format: physicochemical
# Description: FIGS. 3a) and 3b) are two diagrams showing the average particle size obtained by DLS (Dynamic Light Scattering) analysis of CALX173GALO compound (FIG. 3a) and CALX173GLUK compound (FIG. 3b) at respectively 0.47 and 0.08 mM.
# FIGS. 3a and 3b show the aggregation state of CALX173GALO and CALX173GLUK. As illustrated, all the systems observed form aggregates of the micellar type.
# A2A adenosine protein = A2A adenosine protein (Homo sapiens, UniProt P29274); assay: Test of solubilization of A2A membrane protein (Western Blot after 100 000 g centrifugation); conditions: for solubility (solubilization) of A2A adenosine protein: 4° C, protein 20 mg/ml
# Chain of A2A adenosine protein (P29274 whole entry): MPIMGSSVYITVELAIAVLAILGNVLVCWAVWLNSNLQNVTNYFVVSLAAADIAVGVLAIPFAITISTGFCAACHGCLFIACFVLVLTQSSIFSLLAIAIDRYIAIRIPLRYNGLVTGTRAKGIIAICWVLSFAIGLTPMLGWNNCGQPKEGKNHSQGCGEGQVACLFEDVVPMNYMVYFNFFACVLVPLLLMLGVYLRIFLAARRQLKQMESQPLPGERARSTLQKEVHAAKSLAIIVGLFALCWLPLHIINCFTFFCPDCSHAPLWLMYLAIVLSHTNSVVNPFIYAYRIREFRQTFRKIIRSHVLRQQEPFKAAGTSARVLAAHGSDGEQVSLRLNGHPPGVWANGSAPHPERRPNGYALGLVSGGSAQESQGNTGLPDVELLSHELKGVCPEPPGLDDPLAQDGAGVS
# Description: Solubility Test of Protein of Interest: A2A Adenosine.
# The protein content was set at 20 mg/ml (20 mM Tris-Cl pH 8.0, 150 mM NaCl, 10% Glycerol). The solubilization is effected at 4° C. The solubilized or non-solubilized protein fractions are separated by a 100 000 g centrifugation step for 1 hour at 4° C.
# [3] = CMC (H2O) of known detergents as stated in figure legend; format: physicochemical; conditions: no source given
# [4] = from VanAken et al. 1986; cited from earlier work
molecule,measurement,setting,value
"5,11,17-Tris{2-[4-(b-D-glucopyranosyl)-1H-1,2,3-triazol-1-yl]-ethyl}-25-heptoxy-26,27,28-trismethoxy-calix[4]arene [CALX173GLUK]",absorbance at 550 nm of bR protein,[1],0.75
same,dparticules (average particle size by DLS),[2]; at 0.08 mM,5.53 nm
same,solubility (solubilization) of A2A adenosine protein,A2A adenosine protein; detergent at 8 CMC,nonexistent
same,solubility (solubilization) of A2A adenosine protein,A2A adenosine protein; detergent at 20 CMC,enhances the solubilization
"25-heptyloxy-26,27,28-tris(hydroxyl)calix-[4]-arene-5,11,17-tris(acetic acid) sodium salt [CALX173ACE]",CMC (H2O),[3],2.5 mM
"CCCCCCCOc1c2cccc1Cc1cc(CCO[C@@H]3O[C@H](CO)[C@H](O)[C@H](O)[C@H]3O)cc(c1OC)Cc1cc(CCO[C@@H]3O[C@H](CO)[C@H](O)[C@H](O)[C@H]3O)cc(c1OC)Cc1cc(CCO[C@@H]3O[C@H](CO)[C@H](O)[C@H](O)[C@H]3O)cc(c1OC)C2 [CALX173GALO, 5,11,17-Tris[2-(b-D-galactopyranosyloxy)ethyl]-25-heptoxy-26,27,28-trismethoxy-calix[4]arene]",absorbance at 550 nm of bR protein,[1],around 0.4
same,dparticules (average particle size by DLS),[2]; at 0.47 mM,5.46 nm
same,solubilization of A2A protein compared with reference compounds DDM and CALX173ACE,A2A adenosine protein; 20 CMC,better
same,solubility (solubilization) of A2A adenosine protein,A2A adenosine protein; detergent at 20 CMC,partial
"CCCCCCCCCCCCO[C@@H]1O[C@H](CO)[C@@H](O[C@H]2O[C@H](CO)[C@@H](O)[C@H](O)[C@H]2O)[C@H](O)[C@H]1O [DDM, n-dodecyl-β-D-maltopyranoside, reference compound]",CMC (H2O),[4],0.17 mM
same,solubilization of A2A protein,"A2A adenosine protein; 20 CMC, reference compounds",about 20%
same,solubility (solubilization) of A2A adenosine protein,A2A adenosine protein; detergent at 20 CMC,partial
"CCCCCCCCO[C@@H]1O[C@H](CO)[C@@H](O)[C@H](O)[C@H]1O [OG, Octyl Glucoside, reference compound]",stability of the bR protein,[1],nonexistent
"Maltose-Neopentyl Glycol [MNG-12, reference compound]",absorbance at 550 nm of bR protein,[1],around 0.4
